Measured values: US6455550B1, “N-alkanoylphenylalanine derivatives” (Hoffmann-La Roche Inc., priority 1997, dated 2002)

Each molecule was assayed against T1, VLA-4 (α4β1 integrin) binding to immobilized VCAM-1 (Homo sapiens, UniProt P05556+P13612) (assay: VLA-4/VCAM-1 Screening Assay (solid-phase, dual antibody ELISA)). Settings: not given.
T1 construct: followed by 10 μl of Ramos cell-derived VLA-4; endogenous in cells; host or cells: Ramos cells (VLA-4 preparation derived from the cells)
Protocol: VLA-4 antagonist activity, defined as ability to compete for binding to immobilized VCAM-1 was quantitated using a solid-phase, dual antibody ELISA. VLA-4 (α4β1 integrin) bound to VCAM-1 was detected by a complex of anti-integrin β1 antibody: HRP-conjugated anti-mouse IgG: chromogenic substrate (K-Blue). Initially, this entailed coating 96 well plates (Nunc Maxisorp) with recombinant human VCAM-1 (0.4 μg in 100 μl PBS), sealing each plate and then allowing the plates to stand at 4° C for Å18 hr. […] On the day of assay, all plates were washed twice with VCAM Assay Buffer (200 μl/well of 50 mM Tris-HCl, 100 mM NaCl, 1 mM MnCl2, 0.05% Tween 20; pH 7.4). Test compounds were dissolved in 100% DMSO and then diluted 1:20 in VCAM Assay Buffer supplemented with 1 mg/mL BSA (i.e., final DMSO=5%). […] 100 μl per well of each dilution was added to the VCAM-coated plates, followed by 10 μl of Ramos cell-derived VLA-4. These plates were sequentially mixed on a platform shaker for 1 min, incubated for 2 hr at 37° C. and then washed four times with 200 μl/well VCAM Assay Buffer. 100 μl of mouse anti-human integrin β1 antibody was added to each well (0.6 μg/mL in VCAM Assay Buffer+1 mg/mL BSA) and allowed to incubate for 1 hr at 37° C. At the conclusion of this incubation period, all plates were washed four times with VCAM Assay Buffer (200 μl/well). A corresponding second antibody, HRP-conjugated goat anti-mouse IgG (100 μl per well @1:800 dilution in VCAM Assay Buffer+1 mg/mL BSA), was then added to each well, followed by a 1 hr incubation at room temperature and concluded by three washes (200 μl/well) with VCAM Assay Buffer. Color development was initiated by addition of 100 μl K-Blue per well (15 min incubation, room temp) and terminated by addition of 100 μl Red Stop Buffer per well. […] Results were calculated as % inhibition of total binding (i.e., VLA-4+VCAM-1 in the absence of test compound).

T1 sequence (P13612 34-1032): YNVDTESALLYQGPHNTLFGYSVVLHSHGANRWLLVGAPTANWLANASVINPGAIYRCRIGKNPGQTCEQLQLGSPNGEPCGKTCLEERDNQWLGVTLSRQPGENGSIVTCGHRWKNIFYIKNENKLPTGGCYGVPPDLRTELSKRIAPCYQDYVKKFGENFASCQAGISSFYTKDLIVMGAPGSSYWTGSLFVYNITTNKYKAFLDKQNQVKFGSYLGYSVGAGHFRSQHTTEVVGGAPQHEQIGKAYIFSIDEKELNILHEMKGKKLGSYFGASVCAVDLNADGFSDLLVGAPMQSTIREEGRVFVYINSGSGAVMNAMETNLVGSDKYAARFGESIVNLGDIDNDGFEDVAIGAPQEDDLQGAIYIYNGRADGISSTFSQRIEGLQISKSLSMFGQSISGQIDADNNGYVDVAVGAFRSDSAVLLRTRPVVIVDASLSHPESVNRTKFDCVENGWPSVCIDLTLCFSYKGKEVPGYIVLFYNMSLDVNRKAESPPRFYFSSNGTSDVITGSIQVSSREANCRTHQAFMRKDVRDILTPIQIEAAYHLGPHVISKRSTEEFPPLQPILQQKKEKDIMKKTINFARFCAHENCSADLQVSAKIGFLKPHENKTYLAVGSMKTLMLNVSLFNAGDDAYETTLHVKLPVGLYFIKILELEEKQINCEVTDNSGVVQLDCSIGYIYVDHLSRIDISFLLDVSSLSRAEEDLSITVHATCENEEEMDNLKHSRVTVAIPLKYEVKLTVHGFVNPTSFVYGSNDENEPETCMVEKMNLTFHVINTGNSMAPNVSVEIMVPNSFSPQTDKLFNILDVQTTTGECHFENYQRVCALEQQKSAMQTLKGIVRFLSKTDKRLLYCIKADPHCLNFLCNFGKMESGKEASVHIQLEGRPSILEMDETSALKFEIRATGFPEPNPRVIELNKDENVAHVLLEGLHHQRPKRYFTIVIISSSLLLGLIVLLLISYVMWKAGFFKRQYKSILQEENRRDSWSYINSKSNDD
T1 sequence (P05556 21-798): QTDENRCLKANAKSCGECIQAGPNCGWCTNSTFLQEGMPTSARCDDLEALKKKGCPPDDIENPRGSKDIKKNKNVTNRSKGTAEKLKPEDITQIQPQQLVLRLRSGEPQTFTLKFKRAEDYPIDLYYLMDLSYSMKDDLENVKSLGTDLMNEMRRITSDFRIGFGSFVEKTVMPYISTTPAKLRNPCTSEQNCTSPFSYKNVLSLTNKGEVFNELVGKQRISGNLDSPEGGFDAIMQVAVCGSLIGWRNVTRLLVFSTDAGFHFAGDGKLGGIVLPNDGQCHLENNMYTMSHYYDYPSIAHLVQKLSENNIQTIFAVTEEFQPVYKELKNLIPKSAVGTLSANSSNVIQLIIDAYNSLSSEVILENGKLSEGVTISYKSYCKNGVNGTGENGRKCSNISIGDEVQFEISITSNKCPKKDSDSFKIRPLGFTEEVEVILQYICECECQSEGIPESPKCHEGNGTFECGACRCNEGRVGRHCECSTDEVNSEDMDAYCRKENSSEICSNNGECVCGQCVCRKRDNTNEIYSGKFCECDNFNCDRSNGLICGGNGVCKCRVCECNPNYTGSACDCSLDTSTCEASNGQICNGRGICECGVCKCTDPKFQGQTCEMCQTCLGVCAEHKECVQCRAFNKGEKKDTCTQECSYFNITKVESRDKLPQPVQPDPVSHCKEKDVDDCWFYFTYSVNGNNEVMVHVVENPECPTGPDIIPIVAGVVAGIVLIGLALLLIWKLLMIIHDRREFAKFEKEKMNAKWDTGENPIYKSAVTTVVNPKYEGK

In order of rising inhibition at 0.01 µM:
1. CC1(C(=O)N[C@@H](Cc2ccc(NC(=O)c3ccnc4ccccc34)cc2)C(=O)O)CCCCC1 [Example 70]  49%
2. CCCC(C)(CC)C(=O)N[C@@H](Cc1ccc(NC(=O)c2ccnc3ccccc23)cc1)C(=O)O (stereo partly drawn) [Example 68]  49%
3. O=C(Nc1ccc(C[C@H](NC(=O)C2(c3ccc(Cl)cc3)CCCC2)C(=O)O)cc1)c1ccnc2ccccc12 [Example 80]  53%
4. Cc1ccc(C2(C(=O)N[C@@H](Cc3ccc(NC(=O)c4ccnc5ccccc45)cc3)C(=O)O)CCCC2)cc1 [Example 78]  63%
5. O=C(Nc1ccc(C[C@H](NC(=O)C2(c3ccccc3)CCCC2)C(=O)O)cc1)c1ccnc2ccccc12 [Example 75]  68%

In order of rising inhibition at 0.1 µM:
1. CC1(C(=O)N[C@@H](Cc2ccc(NC(=O)c3ccnc4ccccc34)cc2)C(=O)O)CCCCC1 [Example 70]  86%
2. CCCC(C)(CC)C(=O)N[C@@H](Cc1ccc(NC(=O)c2ccnc3ccccc23)cc1)C(=O)O (stereo partly drawn) [Example 68]  86%
3. O=C(Nc1ccc(C[C@H](NC(=O)C2(c3ccc(Cl)cc3)CCCC2)C(=O)O)cc1)c1ccnc2ccccc12 [Example 80]  89%
4. O=C(Nc1ccc(C[C@H](NC(=O)C2(c3ccccc3)CCCC2)C(=O)O)cc1)c1ccnc2ccccc12 [Example 75]  92%
5. Cc1ccc(C2(C(=O)N[C@@H](Cc3ccc(NC(=O)c4ccnc5ccccc45)cc3)C(=O)O)CCCC2)cc1 [Example 78]  93%

Same assay, conditions: IC50 nM, Ramos cell-derived VLA-4, recombinant human VCAM-1 coated plates, 2 hr at 37° C.

`O=C(Nc1ccc(C[C@H](NC(=O)C2(Cc3ccccc3Cl)CCCC2)C(=O)O)cc1)c1c(Cl)cccc1Cl` [Example 51] showed an IC50 of 1.6 nM.

Same assay, conditions: Ramos cell-derived VLA-4, recombinant human VCAM-1 coated plates, 2 hr at 37° C.; read-out: IC50

In order of rising IC50:
1. COCCC1(C(=O)NC(Cc2ccc(N3C(=O)C(CC(C)C)N(C(C)=O)C3c3ccc(Cl)cc3)cc2)C(=O)O)CCCC1 (single isomer, unassigned) [Example 138]  0.42 nM
2. Cc1ccc([N+](=O)[O-])cc1C(=O)Nc1ccc(C[C@H](NC(=O)C23CC4CC(CC(C4)C2)C3)C(=O)O)cc1 [Example 85]  0.43 nM
3. Cn1nnnc1-c1cccc(CC2(C(=O)N[C@@H](Cc3ccc(NC(=O)c4c(Cl)cccc4Cl)cc3)C(=O)O)CCCC2)c1 [Example 48]  0.44 nM
4. COc1ccc(CC2(C(=O)N[C@@H](Cc3ccc(NC(=O)c4cc([N+](=O)[O-])ccc4C)cc3)C(=O)O)CCCC2)cc1 [Example 42, N-[[1-[(4-Methoxyphenyl)methyl]cyclopentyl]carbonyl]-4-[[(2-methyl-5-nitrophenyl)carbonyl]amino]-L-phenylalanine]  0.61 nM
5. COc1ccc(C2(C(=O)N[C@@H](Cc3ccc(N4C(=O)[C@H](CC(C)C)N(C)C4=O)cc3)C(=O)O)CCCCC2)cc1 [Example 144, N-[[1-(4-methoxyphenyl)cyclohexyl]carbonyl]-4-[(4S)-3-methyl-4-(2-methylpropyl)-2,5-dioxo-1-imidazolidinyl]-L-phenylalanine]  0.75 nM
6. COc1ccc(C2(C(=O)N[C@@H](Cc3ccc(N4C(=O)[C@H](C)N(C)C4=O)cc3)C(=O)O)CCCCC2)cc1 [Example 143]  0.85 nM
7. 4-[[(4-Cyano-4-phenyl-1-piperidinyl)carbonyl]amino]-L-phenylalanine on Wang Resin [Example 116]  0.88 nM
8. CCCCC(C)(CC)C(=O)N[C@@H](Cc1ccc(NC(=O)c2cc([N+](=O)[O-])ccc2C)cc1)C(=O)O (stereo partly drawn) [Example 90]  1.04 nM
9. COCC1(C(=O)NC(Cc2ccc(NC(=O)c3c(Cl)cccc3Cl)cc2)C(=O)O)CCCC1 (stereo not drawn) [Example 60]  1.05 nM
10. O=C(Nc1ccc(C[C@H](NC(=O)C23CC4CC(CC(C4)C2)C3)C(=O)O)cc1)c1c(Cl)cccc1Cl [Example 83]  1.1 nM
11. Cn1nnnc1-c1cccc(CC2(C(=O)N[C@@H](Cc3ccc(NC(=O)c4c(Cl)cccc4Cl)cc3)C(=O)O)CCCCC2)c1 [Example 50]  1.3 nM
12. COc1ccc(CC2(C(=O)N[C@@H](Cc3ccc(NC(=O)c4ccccc4[N+](=O)[O-])cc3)C(=O)O)CCCC2)cc1 [Example 41, N-[[1-[(4-Methoxyphenyl)methyl]cyclopentyl]carbonyl]-4-[[(2-nitrophenyl)carbonyl]amino]-L-phenylalanine]  1.7 nM
13. COc1ccc(C2(C(=O)NC(Cc3ccc(NC(=O)CCN4CCCCC4)cc3)C(=O)O)CCCC2)cc1 (stereo not drawn) [Example 93]  1.9 nM
14. COc1ccc(C2(C(=O)N[C@@H](Cc3ccc(NC(=O)N4CCC(C#N)(c5ccccc5)CC4)cc3)C(=O)O)CCCCC2)cc1 [Example 122]  2.1 nM
15. CC1(C(=O)N[C@@H](Cc2ccc(NC(=O)CCN3CCCCC3)cc2)C(=O)O)CC1(Cl)Cl (stereo partly drawn) [Example 99]  2.1 nM
16. COCCC1(C(=O)NC(Cc2ccc(N3C(=O)C(CC(C)C)N(C(C)=O)C3c3ccc(Cl)cc3)cc2)C(=O)O)CCCC1 (single isomer, unassigned) [Example 132]  2.8 nM
17. CCCCC(C)(CC)C(=O)N[C@@H](Cc1ccc(NC(=O)N2CCC(C#N)(c3ccccc3)CC2)cc1)C(=O)O (stereo partly drawn) [Example 120]  2.9 nM
18. O=C(Nc1ccc(C[C@H](NC(=O)C2(c3ccccc3)CCCC2)C(=O)O)cc1)c1ccnc2ccccc12 [Example 75]  3.8 nM
19. Cc1ccc([N+](=O)[O-])cc1C(=O)Nc1ccc(C[C@H](NC(=O)C2(Cc3ccccc3)CCCC2)C(=O)O)cc1 [Example 36, 4-[[(2-Methyl-5-nitrophenyl)carbonyl]amino]-N-[[1-(phenylmethyl)cyclopentyl]carbonyl]-L-phenylalanine]  4.6 nM
20. CC1(C)C2CCC1(C(=O)NC(Cc1ccc(NC(=O)c3c(Cl)cccc3Cl)cc1)C(=O)O)C(=O)C2 (stereo not drawn) [Example 49]  4.7 nM
21. O=C(Nc1ccc(C[C@H](NC(=O)C2(Cc3ccccc3)CCCC2)C(=O)O)cc1)c1ccccc1[N+](=O)[O-] [Example 35, 4-[[(2-Nitrophenyl)carbonyl]amino]-N-[[1-(phenylmethyl)cyclopentyl]carbonyl]-L-phenylalanine]  5 nM
22. O=C(Nc1ccc(C[C@H](NC(=O)C2(c3ccc(Cl)cc3)CCCC2)C(=O)O)cc1)c1ccnc2ccccc12 [Example 80]  6.4 nM
23. CC1(C(=O)N[C@@H](Cc2ccc(NC(=O)c3ccnc4ccccc34)cc2)C(=O)O)CCCCC1 [Example 70]  7 nM
24. COc1ccc(CC2(C(=O)N[C@@H](Cc3ccc(N4C(=O)c5ccccc5C4=O)cc3)C(=O)O)CCCC2)cc1 [Example 110]  8.2 nM
25. CCCC(C)(CC)C(=O)N[C@@H](Cc1ccc(NC(=O)c2ccnc3ccccc23)cc1)C(=O)O (stereo partly drawn) [Example 68]  8.2 nM
26. Cc1ccc(C2(C(=O)N[C@@H](Cc3ccc(NC(=O)c4ccnc5ccccc45)cc3)C(=O)O)CCCC2)cc1 [Example 78]  9 nM
27. COc1ccc(C2(C(=O)N[C@@H](Cc3ccc(NC(=O)c4ccc(F)cc4C(F)(F)F)cc3)C(=O)O)CCCCC2)cc1 [Example 104]  10.4 nM
28. COc1ccc(C2(C(=O)NC(Cc3ccc(NC(=O)C(Cc4ccc(O)cc4)NC(C)=O)cc3)C(=O)O)CCCCC2)cc1 (stereo not drawn) [Example 106]  13.5 nM
29. COCCC1(C(=O)NC(Cc2ccc(N3C(=O)C(CC(C)C)N(C(C)=O)C3c3ccc(OC)cc3)cc2)C(=O)O)CCCC1 (single isomer, unassigned) [Example 137]  19 nM
30. COCCC1(C(=O)NC(Cc2ccc(N3C(=O)C(CC(C)C)N(C(C)=O)C3c3ccc(Cl)cc3)cc2)C(=O)O)CCCC1 (single isomer, unassigned) [Example 133]  60 nM

These molecules were tested against T2, cell-surface VLA-4 (α4β1 integrin) on Ramos cells binding to immobilized VCAM-1 (Homo sapiens, UniProt P05556+P13612) (assay: Ramos (VLA-4)/VCAM-1 Cell-Based Screening Assay (cell adhesion)). Settings: Calcein-AM labeled Ramos cells, VCAM-1 coated plates, 45 min at room temperature; read-out: IC50 in Ramos Cell Based Assay.
T2 construct: Ramos cells bearing cell-surface VLA-4; endogenous in cells; host or cells: Ramos cells (VLA-4); VCAM-1 purified from CHO cell culture media
T2 sequence (P13612 34-1032): as the sequence (P13612 34-1032) above
T2 sequence (P05556 21-798): as the sequence (P05556 21-798) above
Text: Calcein-AM was purchased from Molecular Probes Inc.
VLA-4 (α4β1 integrin) antagonist activity, defined as ability to compete with cell-surface VLA-4 for binding to immobilized VCAM-1, was quantitated using a Ramos-VCAM-1 cell adhesion assay. Ramos cells bearing cell-surface VLA-4, were labeled with a fluorescent dye (Calcein-AM) and allowed to bind VCAM-1 in the presence or absence of test compounds.
Initially, this entailed coating 96 well plates (Nunc Maxisorp) with recombinant human VCAM-1 (100 ng in 100 μl PBS), sealing each plate and allowing the plates to stand at 4° C for Å18 hr. The VCAM-coated plates were subsequently washed twice with 0.05% Tween-20 in PBS, and then blocked for 1hr (room temperature) with 200 μl of Blocking Buffer (1% BSA/0.02% thimerosal) to reduce non-specific binding. Following the incubation with Blocking Buffer, plates were inverted, blotted and the remaining buffer aspirated. Each plate was then washed with 300 μl PBS, inverted and the remaining PBS aspirated.
Test compounds were dissolved in 100% DMSO and then diluted 1:25 in VCAM Cell Adhesion Assay Buffer (4 mM CaCl2, 4 mM MgCl2 in 50 mM TRIS-HCl, pH 7.5) (final DMSO=4%). […] 100 μl/well of each dilution was added to the VCAM-coated plates, followed by 100 μl of Ramos cells (200,000 cells/well in 1% BSA/PBS). […] Plates were inverted to remove non-adherent cells, blotted and 300 μl/well PBS added. Plates were again inverted, blotted and the remaining buffer gently aspirated. 100 μl Lysis Buffer (0.1% SDS in 50 mM TRIS-HCl, pH 8.5) was added to each well and agitated for 2 min on a rotary shaking platform.

In order of falling IC50:
1. COCCC1(C(=O)N[C@@H](Cc2ccc(NC(=O)c3c(Cl)cccc3Cl)cc2)C(=O)O)CCCC1 [Example 59]  13.5 nM
2. CCCC(=O)N1C(c2ccc(Cl)cc2)N(c2ccc(C[C@H](NC(=O)C3(CCNC(C)=O)CCCC3)C(=O)O)cc2)C(=O)[C@H]1Cc1ccccc1 (single isomer, unassigned) [Example 322]  5 nM
3. CCCC(=O)N1C(c2ccccc2)N(c2ccc(C[C@H](NC(=O)C3(CCNC(C)=O)CCCC3)C(=O)O)cc2)C(=O)[C@H]1Cc1ccc(OC)cc1 (single isomer, unassigned) [Example 280]  4.2 nM

Same assay, conditions: Conc. 10 nM; Ramos cell adhesion to VCAM-1

`CC(=O)NCCC1(C(=O)NC(Cc2ccc(N3C(=O)C(Cc4ccccc4)N(C(C)=O)C3c3ccc(Cl)cc3)cc2)C(=O)O)CCCC1` (single isomer, unassigned) [Example 319] gave an inhibition at 0.01 µM of 68%.
